In US5618804A, “Methanediphosphonic acid derivative, process for production thereof and use for pharmaceuticals” (Toray Industries, Inc., priority 1992, dated 1997):

Key:
[1] = tested on: osteoclasts; assay: Inhibition of active-type vitamin D3-stimulated bone resorption (resorption pit formation on dentin slices); assay type: cell-based, mouse (ICR); settings: 10 nM active-type vitamin D3, 4 days
Text: In conditions of osteoporosis, it is thought that the balance between bone formation and bone resorption is lost, with bone resorption being accelerated. Bone resorption is thought to occur due to the activation and increase in the number of osteoclasts, and a model thereof is an experiment in which mouse osteocytes are planted on dentin slices, causing bone resorption due to the stimulation of active-type vitamin D3. Using this model, the bone resorption-inhibiting effects of the compounds according to the present invention were determined.
The femurs and tibias were separated from 10 to 15- day-old ICR mice, and minced in an α-MEM culture medium containing 5% fetal calf serum, and an osteoclast suspension was prepared containing bone marrow cells and bone matrix. The large bone fragments were removed using a nylon mesh, and the viable cells were stained using trypan blue staining, while the osteoclasts were stained using tartaric acid-resistant acidic phosphatase staining, and a cell suspension was prepared which contained the osteoclasts at a proportion of about 0.05-0.1%. The dentin was cut to thicknesses of 150 μm using a low-speed rotating diamond cutter, and punched with a puncher to the size of wells of a 96-well plate. The dentin slices were placed in a 96-well plate, and the cell suspension prepared as described above was placed thereupon to a concentration of 500 osteoclasts per well. As a stimulant, 10 nM active-type vitamin D3 was added thereto, and at the same time the preparations according to the present invention were added thereto to concentrations of 10 μM and 100 μM. The cells were cultured at 37° C. in 10% CO2 environment, and after 4 days' culture the resorption pits which formed on the dentin slices were stained with hematoxylin, and then observed under a microscope and counted. The rate of inhibition of resorption pit formation was calculated according to the following equation. [formula]
The results were indicated with "*" in cases where, based on statistical calculation using the Student t-test, the level of significance was P<0.05 and with "**" in cases where the level of significance was P<0.01 with respect to the active-type vitamin D3 -stimulated control group.

[2] = tested on: adjuvant arthritis; assay: Adjuvant arthritis test (foot edema and osteoclasia); assay type: in vivo, rat (7-week-old female Lewis rats); settings: 20 mg/kg s.c., days 8-21; for Inhibition rate of osteoclasia with respect to control group: 22nd day, left and right hind legs, soft X-ray
[3] = tested on: neutrophils; assay: Inhibition of active oxygen release from fMLP-stimulated human neutrophils (CLA chemiluminescence); assay type: cell-based; settings: 10 μm (so in the source)
Method: Neutrophils are known to ingest foreign bodies for their removal and to produce active oxygen and digestive enzymes, as a biological defense mechanism. However, during chronic inflammation, etc., the active oxygen and digestive enzymes produced by neutrophils also damage normal tissue, and are thought to further reinforce inflammation. Here, the effects of the compounds according to the present invention against the release of active oxygen from neutrophils were determined in the following manner.
Using 3.8% sodium citrate as an anticoagulant, 50 ml of blood was taken from a human vein. […] Of these neutrophils, 1×10^5 cells were incubated at 37° C. with […] of the stimulant, formyl-methionyl-leucyl-phenylalanine (fMLP), and at the same time the compounds according to the present invention were added thereto and the production of active oxygen was measured. For the measurement of the active oxygen, 2-methyl-6-phenyl-3,7-dihydroimidazo [1,2a]pyrazine-3-one (CLA) was reacted therewith resulting in excited carbonyl compounds, and utilizing the phenomenon whereby light is emitted at 380 nm during their transition to ground state, the maximum luminescence intensity was measured with a luminometer. The inhibition rate against active oxygen production was calculated according to the following equation. […]

[4] = tested on: Mouse Macrophage Cell Line J774-1; assay: Inhibition of IL-1 production by LPS-stimulated mouse macrophage cell line J774-1 (IL-1 activity by thymocyte proliferation); assay type: cell-based; settings: 100 μM compound, 1 μg/ml LPS, 24 h, read-out: IL-1 production inhibition rate with respect to control group
Method: Effect Against Production of IL-1 by Mouse Macrophage Cell Line J774-1
With this cell line, the inhibitory effects to IL-1 production of the compounds according to the present invention were determined by the following procedure.
J774-1 cells were cultured in an RPMI-1640 culture medium containing 10% fetal calf serum and 50 μM of 2-mercaptoethanol, and prepared to a cell concentration of 2×10^5 cells/ml. The cell suspension was distributed into a 24-well plate to 1 ml per well, and cultured for 30 minutes. […]
A two-fold serial dilution was made of the above obtained sample in a 96-well multiplate to a volume of 50 μl per well, and 50 μl of the T cell suspension was added to each well. The T cells were cultured for 72 hours, and the IL-1 activity was determined by the rate of cell proliferation. The cell proliferation was calculated using as the value of the absorbance at 570 nm of the pigment produced upon reduction of 3-[4,5-dimethylthiazole-2-yl]-2,5-diphenyltetrazolium bromide by the mitochondria of the viable cells, added at 4 hours prior to completion of the culturing, with 100% proliferation defined as the maximum proliferation of T cells induced by recombinant human IL-1, 0% defined as proliferation with no addition of IL-1, and the units of the sample defined as the degree of dilution of the sample which caused 50% proliferation of the T cells. […]

[5] = tested on: Rabbit cartilage cells; assay: IL-1-inhibiting effect: proteoglycan degradation in IL-1-stimulated rabbit cartilage cells; assay type: cell-based, rabbit (New Zealand white); settings: IL-1-stimulated (30 units/ml rhIL-1β), 100 μM compound, 24 h
Method: Rabbit cartilage cells are separated from knee joint and cultured. When they are stimulated with IL-1, proteoglycan, the main constituent glycoprotein of cartilage cells, is degraded. Using this consequence as an index, the IL-1-inhibiting effects of the compounds according to the present invention were determined in the following manner.
Three-week-old male New Zealand white rabbits weighing 250 g-300 g were sacrified under diethyl ether anesthesia, and their knee joints were separated. The cartilaginous sections were cut out from the knee joint with a scalpel, and then immersed in CMF solution containing 0.14M sodium chloride, 4 mM potassium chloride, 0.4 mM sodium dihydrogen phosphate, 12 mM sodium bicarbonate, 0.2 mM potassium dihydrogen phosphate and 11 mM glucose. The cartilage was placed in 0.1% EDTA and incubated at 37° C. for 20 minutes. The supernatant was removed off, 0.15% trypsin was added to the mixture, and then that was incubated at 37° C. for 60 minutes. The mixture was washed 3 times with CMF solution, and then placed in […] and further treated at 37° C. for 105 minutes. […]
Each of the obtained counts was divided by the count at the initial addition of inorganic sulfuric acid, and expressed as a percentage. […]

| SMILES | Inhibition rate (resorption pit formation) with respect to control ([1]; 10 μM) [%] | Inhibition rate (resorption pit formation) with respect to control ([1]; 100 μM) [%] | Inhibition rate of osteoclasia with respect to control group [2] [%] | Inhibition rate of edema with respect to control group ([2]; left paw, 16th day) [%] | Inhibition rate of edema with respect to control group ([2]; left paw, 21st day) [%] | Inhibition rate of edema with respect to control group ([2]; right paw, 16th day) [%] | Inhibition rate of edema with respect to control group ([2]; right paw, 21st day) [%] | Inhibition rate of edema with respect to control group ([2]; left paw, 17th day) [%] | Inhibition rate of edema with respect to control group ([2]; right paw, 17th day) [%] | Active oxygen production inhibition rate [3] [%] | inhibition at 100 µM [4] [%] | proteoglycan count in cell layer relative to count at initial addition of inorganic sulfuric acid ([5]; not stimulated 0.45, IL-1-stimulated control 0.11) | proteoglycan count in supernatant relative to count at initial addition of inorganic sulfuric acid ([5]; not stimulated 0.63, IL-1-stimulated control 1.06) |
| --- | --- | --- | --- | --- | --- | --- | --- | --- | --- | --- | --- | --- | --- |
| O=P(O)(O)C(Sc1ccc2cc(O)ccc2c1)P(=O)(O)O [Example 6, 6-Hydroxy-2-naphthylthiomethanediphosphonic Acid] | 30.6 ± 12.5 | 90.8 ± 1.33 | 60.3 | 85.6 | 117.3 | 31.8 | 39.9 |  |  |  |  |  |  |
| COc1ccc2cc(SC(P(=O)(O)O)P(=O)(O)O)ccc2c1 [Example 4, 6-Methoxy-2-naphthylthiomethanediphosphonic Acid] | 47.7 ± 2.18 | 94.8 ± 1.04 | 55.2 |  | 93.0 |  | 33.4 | 80.0 | 40.8 |  |  |  |  |
| O=P(O)(O)C(Sc1ccc2ccccc2c1)P(=O)(O)O [Example 2, 2-naphthylthiomethane Diphosphonic Acid] | 18.8 ± 6.23 | 92.1 ± 0.43 | 75.2 |  | 94.5 |  | 44.3 | 76.8 | 35.2 | 29.4 ± 6.58 | 41.7 | 0.31 ± 0.011 | 0.78 ± 0.015 |
